Laboratory results published in US10919935B2, “Antimicrobial peptide derived from myxinidin peptide and uses thereof” (INDUSTRY-ACADEMIC COOPERATION FOUNDATION, CHOSUN UNIVERSITY, priority 2015, dated 2021).
Residues, ends and D or L forms follow the SMILES beside them.

Experiments:
[1] = system: Escherichia coli CCARM 1229; assay type: cell-based
Protocol: (§1) To compare the antimicrobial activity of the peptide produced by the method of Example 1, the inventors of the present invention measured the growth minimum inhibitory concentration (MIC), which is minimum concentration of the peptide showing no dissociation of bacterial cells.
(§2) Specifically, the bacterial strain described in the following Table 2 was purchased and cultured in each medium to a mid-log phase. Then, after dilution to bacterial cell concentration of 2×10^5 cells/100 μl, the cells were inoculated to a microtiter plate (NUNC, USA). Thereafter, myxinidin 1, myxinidin 2, or myxinidin 3 peptides which have been synthesized in Example 1 above was diluted, 1/2 times for each, with BSA (bovine serum albumin) solution in a 96-well plate. After adding the cells to a plate, the cells were cultured for 12 hours at 37° C. By using a microtiter plate reader (Merck Elisa reader, Germany), the absorbance was measured at a wavelength of 600 nm to determine the MIC value of each bacterial strain. As a control group, myxinidin as a mother peptide was subjected to the same processes as above and the MIC value of each bacterial strain was obtained.

[2] = system: Salmonella typhimurium CCARM 8013; assay type: cell-based
Protocol: as §1, §2

[3] = system: L. monocytogenes; assay: MIC at salt concentration (Example 3); assay type: cell-based, Listeria monocytogenes
Protocol: (§3) To compare the antimicrobial activity of the peptide produced by the method of Example 1, the inventors of the present invention measured the minimum growth inhibitory concentration (MIC), which is minimum concentration of the peptide showing no dissociation of bacterial cells, at salt concentration.
as §2, with “above” for “following”, “was” for “was purchased and”, “BSA+150 mM sodium chloride (NaCl) solution, physiological saline (PBS) solution, or 10 mM sodium phosphate (SP)” for “BSA (bovine serum albumin)”

[4] = system: Escherichia coli 1229; assay: MIC at salt concentration (Example 3); assay type: cell-based
Protocol: as §3
as §2, with “above” for “following”, “was” for “was purchased and”, “BSA+150 mM sodium chloride (NaCl) solution, physiological saline (PBS) solution, or 10 mM sodium phosphate (SP)” for “BSA (bovine serum albumin)”

[5] = system: Escherichia coli 1238; assay: MIC at salt concentration (Example 3); assay type: cell-based
Protocol: as §3
as §2, with “above” for “following”, “was” for “was purchased and”, “BSA+150 mM sodium chloride (NaCl) solution, physiological saline (PBS) solution, or 10 mM sodium phosphate (SP)” for “BSA (bovine serum albumin)”

[6] = system: Escherichia coli; assay: MIC at salt concentration (Example 3); assay type: cell-based
Protocol: as §3
as §2, with “above” for “following”, “was” for “was purchased and”, “BSA+150 mM sodium chloride (NaCl) solution, physiological saline (PBS) solution, or 10 mM sodium phosphate (SP)” for “BSA (bovine serum albumin)”

[7] = system: P. aeruginosa 3592; assay: MIC at salt concentration (Example 3); assay type: cell-based, Pseudomonas aeruginosa
Protocol: as §3
as §2, with “above” for “following”, “was” for “was purchased and”, “BSA+150 mM sodium chloride (NaCl) solution, physiological saline (PBS) solution, or 10 mM sodium phosphate (SP)” for “BSA (bovine serum albumin)”

[8] = system: P. aeruginosa 5018; assay: MIC at salt concentration (Example 3); assay type: cell-based, Pseudomonas aeruginosa
Protocol: as §3
as §2, with “above” for “following”, “was” for “was purchased and”, “BSA+150 mM sodium chloride (NaCl) solution, physiological saline (PBS) solution, or 10 mM sodium phosphate (SP)” for “BSA (bovine serum albumin)”

[9] = system: P. aeruginosa; assay: MIC at salt concentration (Example 3); assay type: cell-based, Pseudomonas aeruginosa
Protocol: as §3
as §2, with “above” for “following”, “was” for “was purchased and”, “BSA+150 mM sodium chloride (NaCl) solution, physiological saline (PBS) solution, or 10 mM sodium phosphate (SP)” for “BSA (bovine serum albumin)”

[10] = system: S. aureus; assay: Anti-biofilm activity (crystal violet); assay type: cell-based, Staphylococcus aureus
Protocol: (§4) To compare the antimicrobial activity of the peptide produced by the method of Example 1, the inventors of the present invention measured the biofilm inhibitory concentration value of the peptide showing no dissociation of bacterial cells.
(§5) Specifically, the Gram-negative bacteria and Gram-positive bacteria among the bacterial strains described in the above Table 2 were cultured in each medium to a mid-log phase. Then, after dilution to bacterial cell concentration of 5×10^5 cells/100 μl, the cells were inoculated to a microtiter plate (NUNC, USA). Thereafter, myxinidin 1, myxinidin 2, or myxinidin 3 peptides which have been synthesized in Example 1 above was diluted, 1/10 times for each, with physiological saline (PBS) solution in a 96-well plate. After adding the cells to a plate, the cells were cultured for 12 hours at 37° C. After removing the supernatant, the cells were fixed with 100% methanol and reacted for 2 hours with Crystal violet staining solution followed by rinsing for 3 times. Then, after dissolving in 95% ethanol, the absorbance was measured at a wavelength of 595 nm by using a microtiter plate reader (Merck Elisa reader, Germany) to determine the biofilm inhibitory concentration value of each bacterial strain. As a control group, myxinidin as a mother peptide was subjected to the same processes as above and the biofilm inhibitory concentration value of each bacterial strain was obtained.

[11] = system: L. monocytogenes; assay: Anti-biofilm activity (crystal violet); assay type: cell-based, Listeria monocytogenes
Protocol: as §4, §5

[12] = in vitro; assay type: cell-based; conditions: human, NHK cells (normal human keratinocytes)
Protocol: To determine the cytotoxicity of the peptide produced by the method of Example 1 in normal cell line, toxicity was measured by using NHK cells (Normal Human Keratinocyte cells).
Specifically, NHK cells which have been cultured in Epilife medium with 60 μM calcium (Gibco, USA) containing 10% HKGS (Human Keratinocyte Growth Supplement) (Gibco, USA) were aliquoted in a 96-well plate to have 1×10^4 cells per well. After culturing them for 24 hours, the cells were subjected to a treatment with myxinidin, myxinidin 1, myxinidin 2, or myxinidin 3 peptide, each at concentration of 3.125, 6.25, 12.5, or 25.0 μM/well, followed by reaction for 24 hours in a 5% CO2 incubator. After the culture, a reaction solution containing 5 mg/ml MTT (Thiazolyl Blue Tetrazolium Bromide) dissolved in physiological saline (PBS) was added in an amount of 20 μl to each well and allowed to react for 4 hours. After that, the supernatant was removed, and, by dissolving MTT crystals that are formed by adding 200 μl of DMSO, the absorbance at 560 nm was measured to determine the cell survival ability.

[13] = NaCl (BSA+150 mM sodium chloride)

## CC[C@H](C)[C@H](NC(=O)CN)C(=O)N[C@@H](Cc1c[nH]cn1)C(=O)N[C@@H](Cc1c[nH]cn1)C(=O)N[C@H](C(=O)N[C@@H](CC(C)C)C(=O)N[C@@H](CCCCN)C(=O)N[C@@H](Cc1ccc(O)cc1)C(=O)NCC(=O)N[C@@H](CCCCN)C(=O)N1CCC[C@H]1C(=O)N[C@@H](CO)C(N)=O)[C@@H](C)CC [Myxinidin 1, GIHHILKYGKPS-NH2] (H-GIHHILKYGKPS-NH2; N-terminus assumed)
[1]
  Minimum growth inhibitory concentration: >32 µM
[2]
  Minimum growth inhibitory concentration: >32 µM
[3]; [13]
  Antimicrobial activity (MIC) according to salt concentration: >32
[3]; PBS
  Antimicrobial activity (MIC) according to salt concentration: >32
[3]; SP (10 mM sodium phosphate)
  Antimicrobial activity (MIC) according to salt concentration: >32
[4]; [13]
  Antimicrobial activity (MIC) according to salt concentration: >32
[4]; PBS
  Antimicrobial activity (MIC) according to salt concentration: >32
[4]; SP (10 mM sodium phosphate)
  Antimicrobial activity (MIC) according to salt concentration: >32
[5]; [13]
  Antimicrobial activity (MIC) according to salt concentration: >32
[5]; PBS
  Antimicrobial activity (MIC) according to salt concentration: >32
[5]; SP (10 mM sodium phosphate)
  Antimicrobial activity (MIC) according to salt concentration: >32
[6]; [13]
  Antimicrobial activity (MIC) according to salt concentration: >32
[6]; PBS
  Antimicrobial activity (MIC) according to salt concentration: >32
[6]; SP (10 mM sodium phosphate)
  Antimicrobial activity (MIC) according to salt concentration: >32
[7]; [13]
  Antimicrobial activity (MIC) according to salt concentration: >32
[7]; PBS
  Antimicrobial activity (MIC) according to salt concentration: >32
[7]; SP (10 mM sodium phosphate)
  Antimicrobial activity (MIC) according to salt concentration: >32
[8]; [13]
  Antimicrobial activity (MIC) according to salt concentration: >32
[8]; PBS
  Antimicrobial activity (MIC) according to salt concentration: >32
[8]; SP (10 mM sodium phosphate)
  Antimicrobial activity (MIC) according to salt concentration: >32
[9]; [13]
  Antimicrobial activity (MIC) according to salt concentration: >32
[9]; PBS
  Antimicrobial activity (MIC) according to salt concentration: >32
[9]; SP (10 mM sodium phosphate)
  Antimicrobial activity (MIC) according to salt concentration: >32
[10]; peptide 0.25 μM
  Biofilm forming ability: 98%
[10]; peptide 0.5 μM
  Biofilm forming ability: 88%
[10]; peptide 1 μM
  Biofilm forming ability: 87%
[10]; peptide 2 μM
  Biofilm forming ability: 86%
[10]; peptide 4 μM
  Biofilm forming ability: 83%
[10]; peptide 8 μM
  Biofilm forming ability: 83%
[10]; peptide 16 μM
  Biofilm forming ability: 79%
[10]; peptide 32 μM
  Biofilm forming ability: 75%
[11]; peptide 0.25 μM
  Biofilm forming ability: 100%
[11]; peptide 0.5 μM
  Biofilm forming ability: 100%
[11]; peptide 1 μM
  Biofilm forming ability: 100%
[11]; peptide 2 μM
  Biofilm forming ability: 100%
[11]; peptide 4 μM
  Biofilm forming ability: 99%
[11]; peptide 8 μM
  Biofilm forming ability: 98%
[11]; peptide 16 μM
  Biofilm forming ability: 97%
[11]; peptide 32 μM
  Biofilm forming ability: 93%
[12]
  viability at 24 h, 3.125 µM: 100%
  viability at 24 h, 6.25 µM: 96%
  viability at 24 h, 12.5 µM: 96%
  viability at 24 h, 25 µM: 88%

## CC[C@H](C)[C@H](NC(=O)[C@H](Cc1c[nH]c2ccccc12)NC(=O)[C@H](CCCCN)NC(=O)[C@@H](NC(=O)[C@@H](N)CCCCN)[C@@H](C)CC)C(=O)N[C@@H](CC(C)C)C(=O)N[C@@H](CCCCN)C(=O)N[C@@H](Cc1ccc(O)cc1)C(=O)N[C@@H](Cc1c[nH]c2ccccc12)C(=O)N[C@@H](CCCCN)C(=O)N[C@@H](Cc1c[nH]c2ccccc12)C(=O)N[C@@H](CO)C(N)=O [Myxinidin 2, KIKWILKYWKWS-NH2] (H-KIKWILKYWKWS-NH2; N-terminus assumed)
[1]
  Minimum growth inhibitory concentration: 2 µM
[2]
  Minimum growth inhibitory concentration: 16 µM
[3]; [13]
  Antimicrobial activity (MIC) according to salt concentration: 4
[3]; PBS
  Antimicrobial activity (MIC) according to salt concentration: 8
[3]; SP (10 mM sodium phosphate)
  Antimicrobial activity (MIC) according to salt concentration: 8
[4]; [13]
  Antimicrobial activity (MIC) according to salt concentration: 8
[4]; PBS
  Antimicrobial activity (MIC) according to salt concentration: 2
[4]; SP (10 mM sodium phosphate)
  Antimicrobial activity (MIC) according to salt concentration: 2
[5]; [13]
  Antimicrobial activity (MIC) according to salt concentration: 8
[5]; PBS
  Antimicrobial activity (MIC) according to salt concentration: 2
[5]; SP (10 mM sodium phosphate)
  Antimicrobial activity (MIC) according to salt concentration: 4
[6]; [13]
  Antimicrobial activity (MIC) according to salt concentration: 8
[6]; PBS
  Antimicrobial activity (MIC) according to salt concentration: 4
[6]; SP (10 mM sodium phosphate)
  Antimicrobial activity (MIC) according to salt concentration: 2
[7]; [13]
  Antimicrobial activity (MIC) according to salt concentration: 16
[7]; PBS
  Antimicrobial activity (MIC) according to salt concentration: 8
[7]; SP (10 mM sodium phosphate)
  Antimicrobial activity (MIC) according to salt concentration: 8
[8]; [13]
  Antimicrobial activity (MIC) according to salt concentration: 16
[8]; PBS
  Antimicrobial activity (MIC) according to salt concentration: 4
[8]; SP (10 mM sodium phosphate)
  Antimicrobial activity (MIC) according to salt concentration: 2
[9]; [13]
  Antimicrobial activity (MIC) according to salt concentration: 8
[9]; PBS
  Antimicrobial activity (MIC) according to salt concentration: 4
[9]; SP (10 mM sodium phosphate)
  Antimicrobial activity (MIC) according to salt concentration: 8
[10]; peptide 0.25 μM
  Biofilm forming ability: 100%
[10]; peptide 0.5 μM
  Biofilm forming ability: 97%
[10]; peptide 1 μM
  Biofilm forming ability: 97%
[10]; peptide 2 μM
  Biofilm forming ability: 97%
[10]; peptide 4 μM
  Biofilm forming ability: 93%
[10]; peptide 8 μM
  Biofilm forming ability: 89%
[10]; peptide 16 μM
  Biofilm forming ability: 24%
[10]; peptide 32 μM
  Biofilm forming ability: 15%
[11]; peptide 0.25 μM
  Biofilm forming ability: 100%
[11]; peptide 0.5 μM
  Biofilm forming ability: 100%
[11]; peptide 1 μM
  Biofilm forming ability: 100%
[11]; peptide 2 μM
  Biofilm forming ability: 100%
[11]; peptide 4 μM
  Biofilm forming ability: 99%
[11]; peptide 8 μM
  Biofilm forming ability: 93%
[11]; peptide 16 μM
  Biofilm forming ability: 45%
[11]; peptide 32 μM
  Biofilm forming ability: 33%
[12]
  viability at 24 h, 3.125 µM: 100%
  viability at 24 h, 6.25 µM: 100%
  viability at 24 h, 12.5 µM: 98%
  viability at 24 h, 25 µM: 75%
